Test results published in a melting point compilation (Tetko et al.; mined from patent text by program, amines drawn as free bases though some values may be those of a salt).

Structure (SMILES)	melting point [°C]
NC(=S)Nc1nncs1	253
CCOC(=O)N1CCc2nc3ccccc3c(Cl)c2CC1	104
CC(C)(C)C(O)C(NC(=O)c1ccccc1)n1ccnc1 (centres undefined)	143
CCCc1c(CC)sc2[nH]c(=O)c(=O)[nH]c12	295 to 298
CC12C=CC(=O)C(N=C=S)=C1C=CC1C2CCC2(C)C(=O)CCC12 (centres undefined)	146 to 166
O=C1C(c2cc(OCc3ccccc3)ccc2O)c2ccccc2N1Cc1ccc(Cl)s1 (centres undefined)	173 to 175
Cc1ccc(-c2ccc3c(c2)C=C(C(=O)Nc2ccc(CSCc4ccccc4)cc2)CCO3)cc1	145 to 146
N#Cc1ccc(C(=O)NCCCCn2cnc3c(N)nc4ccccc4c32)cn1	125 to 129
NC(=O)c1cc(N(Cc2c(F)c(F)c(C(F)(F)F)c(F)c2F)C(=O)C(F)(F)F)ccc1OC(=O)C(F)(F)F	179 to 180
CSc1ccc(NC(=O)CCCCCSc2nc3ccccc3o2)c(SC)n1	125 to 126
CCOC(=O)c1cn(-c2nnc(C)s2)cn1	121 to 122
O=C1c2ccccc2C(O)(c2ccc(Cl)cc2)N1Cc1ccc([N+](=O)[O-])cc1 (centres undefined)	197 to 200
CCCn1c(COCC)nc2c(N)nc3ccc(OC(=O)N4CCOCC4)cc3c21	193 to 196
O=C(CCl)Nc1ccc2c(c1NC(=O)CSc1ccccc1)C(=O)c1ccccc1C2=O	161 to 162
CCn1cc2c(n1)c(N)nc1cc(OCc3ccccc3)ccc12	229 to 230
CCOC(=O)C1=Cc2cc(Cl)c(F)cc2OC1C(F)(F)F (centres undefined)	97.6 to 98.6
COCCNC(=O)c1cccc(-c2cccc3oc(Cc4cccc(C(F)(F)F)c4)cc23)c1	91 to 92
CCCCNS(=O)(=O)CC(O)(CCCC)C(N)C(O)CC1CCCCC1 (centres undefined)	164 to 165
O=C1CCc2c(F)cc(Cl)cc21	105 to 107
CN1C(=O)C(NC(=O)CC2CCCCC2)N=C(N2CCCCCC2)c2ccccc21 (centres undefined)	205 to 207
CN(Cc1cc2c(=O)c(C(=O)NCc3ccc(Cl)cc3)cn(C)c2o1)CC(O)c1ccccc1 (centres undefined)	118 to 121
Oc1ccc(O)c(-c2nc3ccc(O)cc3o2)c1	278 to 280
Cc1cc(=O)n2c3c(cc(C(OCc4ccccc4)(C(F)(F)F)C(F)(F)F)cc13)CC2	207 to 208
S=C1CNCCN1Cc1ccccc1	70 to 73
O=C(CCN1CCCCC1)Nc1cccc(NC(=O)Nc2ccc(N(CCCl)CCCl)cc2)c1	108 to 110
Nc1nc(C(F)(F)F)cc(C(F)(F)F)n1	94.5 to 96

Continued, values first:

melting point [°C]	Structure (SMILES)
235 to 237	COc1cc(F)ccc1C(O)C1CCCCn2c1nc(-c1ccncn1)cc2=O (racemic)
139 to 142	COc1ccc(C=O)cc1NC(=O)OCC1c2ccccc2-c2ccccc21
> 250	Cc1nc2cc3c(cc2s1)C1(CO3)C(=O)Nc2ccccc21 (centres undefined)
133	CC(C)c1cn2ccccc2c1S(=O)(=O)c1ccc(OCCCBr)cc1
85 to 87	CN1C(=O)C(c2cccc(Br)c2)(c2ccc(OC(F)F)c(C3CC3)c2)N=C1N (centres undefined)
102	CCCCCCCCCc1c(C(F)(F)F)noc1NS(=O)(=O)c1ccccc1
260 to 264	O=C(CCNc1c(C(=O)O)[nH]c2cc(Cl)ccc12)c1ccc(F)c(F)c1
113 to 116	COC(=O)C1=C(C)NC(C)=C(C(=O)OC)C1c1cccc(NC(=S)NNC(=O)CN2CCC(c3cccc(OC)c3)CC2)c1
245 to 247	COc1ccc(Cl)cc1C1(O)C(=O)Nc2ccc(Br)cc21 (centres undefined)
233 to 235	COc1cc(NS(=O)(=O)c2ccc(N3CCNC3=O)cc2)cc(OC)c1OC
78 to 79	CCNC(=O)c1ccc2ccc(OC)cc2c1OC(C)C
211 to 213	COc1ccc(-c2csc(Nc3cc(C)ccn3)n2)cc1OC
95.5 to 96.5	CCn1c2ccccc2c2cc3ccccc3c(C=O)c21
